Laboratory results from patent publication US20260062412A1, “NITROGEN-CONTAINING HETEROCYCLIC COMPOUND HAVING MYT1 INHIBITORY ACTIVITY” (CHUGAI SEIYAKU KABUSHIKI KAISHA, priority 2023, published 2026).
Where a name gives a salt, the structure may show the parent alone.

biological target: MYT1 protein (Homo sapiens (Human), UniProt Q99640); assay: Test for binding to ATP binding site of MYT1 (Kinase Tracer 178 / Eu-Anti-GST antibody TR-FRET); details: ATP binding site of MYT1, 30 minutes at room temperature
Sequence (Q99640 whole entry): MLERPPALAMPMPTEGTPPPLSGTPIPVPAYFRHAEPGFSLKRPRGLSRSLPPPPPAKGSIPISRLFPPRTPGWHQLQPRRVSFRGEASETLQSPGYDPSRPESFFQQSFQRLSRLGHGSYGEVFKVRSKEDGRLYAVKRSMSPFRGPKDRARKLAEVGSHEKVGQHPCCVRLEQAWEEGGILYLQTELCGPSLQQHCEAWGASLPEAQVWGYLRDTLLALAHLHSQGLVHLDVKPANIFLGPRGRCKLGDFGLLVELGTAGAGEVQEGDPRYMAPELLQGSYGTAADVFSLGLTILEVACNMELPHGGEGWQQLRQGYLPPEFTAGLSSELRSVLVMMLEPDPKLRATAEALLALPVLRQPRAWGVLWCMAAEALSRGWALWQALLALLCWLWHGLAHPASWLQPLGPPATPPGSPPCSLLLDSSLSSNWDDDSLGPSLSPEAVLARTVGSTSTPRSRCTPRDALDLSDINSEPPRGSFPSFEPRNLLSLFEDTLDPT

Row | SMILES | IC50 [nM]
1 | N#C[C@H]1C[C@H](Oc2cc3c(-c4ccc(F)c5[nH]ncc45)c(N)c(=O)[nH]c3c3nccnc23)C1 [Compound G12, (1r,3r)-3-[[8-Amino-7-(7-fluoro-1H-indazol-4-yl)-9-oxo-10H-pyrido[2,3-f]quinoxalin-5-yl]oxy]cyclobutane-1-carbonitrile] | 0.95
2 | Cc1cc2c(-c3cc(F)c(F)c4[nH]ncc34)c(N)c(=O)[nH]c2c2cc(F)cnc12 [Compound F6, 3-Amino-4-(6,7-difluoro-1H-indazol-4-yl)-9-fluoro-6-methyl-1H-1,7-phenanthrolin-2-one] | 9.3
3 | Nc1c(-c2ccc(F)c3[nH]ncc23)c2cc(C3CC3)c3cccc(Cl)c3c2[nH]c1=O [Compound B20, 3-Amino-10-chloro-6-cyclopropyl-4-(7-fluoro-1H-indazol-4-yl)-1H-benzo[h]quinolin-2-one] | 42
4 | Cc1ccc2c(n1)c(C1CC1)cc1c(-c3ccc(F)c4[nH]ncc34)c(N)c(=O)[nH]c12 [Compound C182, 3-Amino-6-cyclopropyl-4-(7-fluoro-1H-indazol-4-yl)-8-methyl-1H-1,7-phenanthrolin-2-one] | 5.5
5 | CC[C@H](C)Oc1cc2c(-c3ccc(F)c4[nH]ncc34)c(N)c(=O)[nH]c2c2nccnc12 [Compound G13, 8-Amino-5-[(2S)-butan-2-yl]oxy-7-(7-fluoro-1H-indazol-4-yl)-10H-pyrido[2,3-f]quinoxalin-9-one] | 0.49
6 | Nc1c(-c2ccc(F)c3[nH]ncc23)c2cc(N3CCCC3)c3ncccc3c2[nH]c1=O [Compound C113, 3-Amino-4-(7-fluoro-1H-indazol-4-yl)-6-pyrrolidin-1-yl-1H-1,7-phenanthrolin-2-one] | 4.6
7 | Nc1c(-c2cc(F)c(F)c3[nH]ncc23)c2cc(N3CCOCC3)c3ncccc3c2[nH]c1=O [Compound C208, 3-Amino-4-(6,7-difluoro-1H-indazol-4-yl)-6-morpholin-4-yl-1H-1,7-phenanthrolin-2-one] | 2.1
8 | CC(O)c1ccc2[nH]c(=O)c(N)c(-c3ccc(Cl)c4[nH]ncc34)c2c1 (centres unmarked) [Compound A32, 3-Amino-4-(7-chloro-1H-indazol-4-yl)-6-(1-hydroxyethyl)-1H-quinolin-2-one] | 16
9 | Nc1c(-c2ccc(Cl)c3[nH]ncc23)c2cc(C3CCCC3)c3ccccc3c2[nH]c1=O [Compound B40, 3-Amino-4-(7-chloro-1H-indazol-4-yl)-6-cyclopentyl-1H-benzo[h]quinolin-2-one] | 13
10 | CC(C)(O)CCOc1cc2c(-c3ccc(F)c4[nH]ncc34)c(N)c(=O)[nH]c2c2cccnc12 [Compound C20, 3-Amino-4-(7-fluoro-1H-indazol-4-yl)-6-(3-hydroxy-3-methylbutoxy)-1H-1,7-phenanthrolin-2-one] | 3.6
11 | Nc1c(-c2ccc(F)c3[nH]ncc23)c2cc(Br)c3scnc3c2[nH]c1=O [Compound N1, 7-Amino-4-bromo-6-(7-fluoro-1H-indazol-4-yl)-9H-[1,3]thiazolo[5,4-h]quinolin-8-one] | 5.3
12 | CS(=O)(=O)Nc1cc2c(-c3ccc(F)c4[nH]ncc34)c(N)c(=O)[nH]c2c2ncccc12 [Compound D16, N-[8-Amino-7-(7-fluoro-1H-indazol-4-yl)-9-oxo-10H-1,10-phenanthroline-5-yl]methanesulfonamide] | 2.7
13 | N#Cc1cc2c(-c3ccc(C#N)c4[nH]ncc34)c(N)c(=O)[nH]c2c2ccccc12 [Compound B42, 3-Amino-4-(7-cyano-1H-indazol-4-yl)-2-oxo-1H-benzo[h]quinoline-6-carbonitrile] | 250
14 | Nc1c(-c2ccc(F)c3[nH]ncc23)c2cc(I)c3ccc(Cl)cc3c2[nH]c1=O [Compound B9, 3-Amino-9-chloro-4-(7-fluoro-1H-indazol-4-yl)-6-iodo-1H-benzo[h]quinolin-2-one] | 120
15 | Nc1c(-c2cc(F)c(F)c3[nH]ncc23)c2cc(O[C@H]3C[C@H](F)C3)c3ncccc3c2[nH]c1=O [Compound C210, 3-Amino-4-(6,7-difluoro-1H-indazol-4-yl)-6-((1r,3r)-3-fluorocyclobutyl)oxy-1H-1,7-phenanthrolin-2-one] | 1.3
16 | Nc1c(-c2ccc(F)c3[nH]ncc23)c2cc(N3CCOCC3)c3cccnc3c2[nH]c1=O [Compound D9, 3-Amino-4-(7-fluoro-1H-indazol-4-yl)-6-morpholin-4-yl-1H-1,10-phenanthrolin-2-one] | 22
17 | Nc1c(-c2ccc(F)c3[nH]ncc23)c2cc(NS(=O)(=O)C3CC3)c3cccnc3c2[nH]c1=O [Compound D17, N-[8-amino-7-(7-fluoro-1H-indazol-4-yl)-9-oxo-10H-1,10-phenanthrolin-5-yl]cyclopropanesulfonamide] | 3.1
18 | Nc1c(-c2ccc(F)c3[nH]ncc23)c2cc(OC3CCCC3)c3ncccc3c2[nH]c1=O [Compound C6, 3-Amino-6-cyclopentyloxy-4-(7-fluoro-1H-indazol-4-yl)-1H-1,7-phenanthrolin-2-one] | 1
19 | Nc1c(-c2c(F)ccc3[nH]ncc23)c2cc(Br)c3ncccc3c2[nH]c1=O [Compound C154, 3-Amino-6-bromo-4-(5-fluoro-1H-indazol-4-yl)-1H-1,7-phenanthrolin-2-one] | 3.3

Row | SMILES | IC50 [nM]
20 | Nc1c(-c2ccc(F)c3[nH]ncc23)c2cc(OC[C@@H]3CCCO3)c3ncccc3c2[nH]c1=O [Compound C37, 3-Amino-4-(7-fluoro-1H-indazol-4-yl)-6-[[(2S)-oxolan-2-yl]methoxy]-1H-1,7-phenanthrolin-2-one] | 3.9
21 | Nc1c(-c2ccc(F)c3[nH]ncc23)c2cc(C3CCNCC3)c3ncccc3c2[nH]c1=O [Compound C133, 3-Amino-4-(7-fluoro-1H-indazol-4-yl)-6-piperidin-4-yl-1H-1,7-phenanthrolin-2-one; hydrochloride] | 1.7
22 | Cc1cc2c(-c3ccc(F)c4[nH]ncc34)c(N)c(=O)[nH]c2c2sncc12 [Compound H2, 7-Amino-6-(7-fluoro-1H-indazol-4-yl)-4-methyl-9H-[1.2]thiazolo[4,5-h]quinolin-8-one] | 1.8
23 | Nc1c(-c2ccc(Cl)c3[nH]ncc23)c2cc(OCCCF)c(F)cc2[nH]c1=O [Compound A6, 3-Amino-4-(7-chloro-1H-indazol-4-yl)-7-fluoro-6-(3-fluoropropoxy)-1H-quinolin-2-one] | 3
24 | C=Cc1cc2c(-c3ccc(F)c4[nH]ncc34)c(N)c(=O)[nH]c2c2ccccc12 [Compound B30, 3-Amino-6-ethenyl-4-(7-fluoro-1H-indazol-4-yl)-1H-benzo[h]quinolin-2-one] | 15
25 | Nc1c(-c2ccc(F)c3[nH]ncc23)c2cc(OC3CC(C(F)(F)F)C3)c3ncccc3c2[nH]c1=O (centres unmarked) [Compound C57, 3-Amino-4-(7-fluoro-1H-indazol-4-yl)-6-[3-(trifluoromethyl)cyclobutyl]oxy-1H-1,7-one] | 2.5
26 | Nc1c(-c2ccc(F)c3[nH]ncc23)c2cc(N3CCC(O)C3)c3ncccc3c2[nH]c1=O (centres unmarked) [Compound C116, 3-Amino-4-(7-fluoro-1H-indazol-4-yl)-6-(3-hydroxypyrrolidin-1-yl)-1H-1,7-phenanthrolin-2-one] | 2.7
27 | Nc1c(-c2ccc(F)c3[nH]ncc23)c2cc(OCC3CC(F)(F)C3)c3ncccc3c2[nH]c1=O [Compound C39, 3-Amino-6-[(3,3-difluorocyclobutyl)methoxy]-4-(7-fluoro-1H-indazol-4-yl)-1H-1,7-phenanthrolin-2-one] | 6.5
28 | C=Cc1cc(Cl)cc2c(-c3ccc(Cl)c4[nH]ncc34)c(N)c(=O)[nH]c12 [Compound A23, 3-Amino-6-chloro-4-(7-chloro-1H-indazol-4-yl)-8-ethenyl-1H-quinolin-2-one] | 34
29 | Nc1c(-c2ccc(F)c3[nH]ncc23)c2cnc3ccccc3c2[nH]c1=O [Compound R1, 3-Amino-4-(7-fluoro-1H-indazol-4-yl)-1H-benzo[h][1,6]naphthyridin-2-one] | 3.4
30 | Nc1c(-c2ccc(F)c3[nH]ncc23)c2cc(C3CCCO3)c3ncccc3c2[nH]c1=O (centres unmarked) [Compound C96, 3-Amino-4-(7-fluoro-1H-indazol-4-yl)-6-(oxolan-2-yl)-1H-1,7-phenanthrolin-2-one] | 5.3
31 | Nc1c(-c2ccc(Cl)c3[nH]ncc23)c2cc(Cl)c3ccccc3c2[nH]c1=O [Compound B45, 3-Amino-6-chloro-4-(7-chloro-1H-indazol-4-yl)-1H-benzo[h]quinolin-2-one] | 33
32 | Nc1c(-c2c(F)ccc3[nH]ncc23)c2cc(Cl)ccc2[nH]c1=O [Compound A67, 3-Amino-6-chloro-4-(5-fluoro-1H-indazol-4-yl)-1H-quinolin-2-one] | 130
33 | Nc1c(-c2ccc(F)c3[nH]ncc23)c2cc(C3CCCC3)c3ccccc3c2[nH]c1=O [Compound B25, 3-Amino-6-cyclopentyl-4-(7-fluoro-1H-indazol-4-yl)-1H-benzo[h]quinolin-2-one] | 24
34 | Cn1cc(-c2cc3c(-c4cc(F)c(F)c5[nH]ncc45)c(N)c(=O)[nH]c3c3cccnc23)cn1 [Compound C207, 3-Amino-4-(6,7-difluoro-1H-indazol-4-yl)-6-(1-methylpyrazol-4-yl)-1H-1,7-phenanthrolin-2-one] | 1
35 | Cc1ccc2c(n1)c(I)cc1c(-c3ccc(F)c4[nH]ncc34)c(N)c(=O)[nH]c12 [Compound C181, 3-Amino-4-(7-fluoro-1H-indazol-4-yl)-6-iodo-8-methyl-1H-1,7-phenanthrolin-2-one] | 23
36 | C[C@H](Oc1cc2c(-c3ccc(F)c4[nH]ncc34)c(N)c(=O)[nH]c2c2cccnc12)C(F)(F)F [Compound C22, 3-Amino-4-(7-fluoro-1H-indazol-4-yl)-6-[(2S)-1,1,1-trifluoropropan-2-yl]oxy-1H-1,7-phenanthrolin-2-one] | 7.9
37 | Cc1cc2c(-c3cccc4[nH]nnc34)c(N)c(=O)[nH]c2c2cccnc12 [Compound C224, 3-Amino-4-(1H-benzotriazol-4-yl)-6-methyl-1H-1,7-phenanthrolin-2-one] | 3000
38 | Cc1c(F)c2c(-c3cc(F)c(F)c4[nH]ncc34)c(N)c(=O)[nH]c2c2cccnc12 [Compound C219, 3-Amino-4-(6,7-difluoro-1H-indazol-4-yl)-5-fluoro-6-methyl-1H-1,7-phenanthrolin-2-one] | 2.1
